Results as given in US12599599B2, “Anti-inflammatory, anti-cancer, and anti-angiogenic compounds, pharmaceutical compositions, and methods of making and using thereof” (MEDICON PHARMACEUTICALS, INC., priority 2017, dated 2026).

Key:
[1] = tested on: SKOV-3 human ovarian cancer cells; assay: Acridine orange staining by flow cytometry (autophagy); type: cell-based; details: after treatment; 4% before
Method: (§1) FIGS. 12A-12C and FIGS. 13A-13C illustrate key findings related to the mechanism of action of compound 5 against ovarian cancer. The studies shown here were performed in SKOV-3 human ovarian cancer cells. FIG. 12A: Left: Compound 5 increases the percentage of cells with acridine orange staining determined by flow cytometry (4% 4→38% after treatment with compound 5) and indicating the induction of autophagy. Right: Electron micrographs show morphological features of cells undergoing autophagy. Yellow arrowheads: vacuoles; white arrowheads: autophagosomes. […] N: nucleus; ER: endoplasmic reticulum with visible ribosomes. The left micrograph shown normal ER (circled) in a vehicle-treated cell. […] The latter finding is diagnostic of ER stress. Magnification: 6,800×. FIG. 12C: Compound 5 suppresses STAT3, mTOR and JNK activation by phosphorylation, as well as the levels of COT.

[2] = tested on: chicken embryo chorioallantoic membrane; assay: Chicken embryo chorioallantoic membrane assay; type: in vivo
[3] = tested on: SKOV-3 ovarian cancer; assay: 24 hr growth inhibition of cell line; type: cell-based; details: Homo sapiens, SK-OV-3, 24 h
Method: The therapeutic efficacy of compounds 2, 5, and 6 was assessed in human and murine cell lines of varied tissue origin, and their 24 hr 50% inhibitory concentration was determined by following standard methodologies. Typical results are shown in the Table 5, indicating a broad anticancer effect.
Ovarian cancer cells were studied in greater detail using the following ovarian cancer cell lines: SKOV-3, OVCAR3, A2780 (and two cell lines derived from it, A2870cis that is resistant to cisplatin, and A2870ADR that is resistant to doxorubicin (Adriamycin)), and HEY (sensitive to paclitaxel (Taxol), and its derivative HEY-T30 that is Taxol-resistant). […]

[4] = tested on: VEGF-B; assay: Secreted VEGF in culture medium by ELISA; type: cell-based, human
Method: (§2) The effect of compounds 2, 5, and 6 on VEGF production was examined. For example, SKOV-3 ovarian cancer cells grown in culture were treated with compound 5 1×IC50 for up to 24 h. Secreted VEGF was assayed in the culture medium by ELISA (R&D Systems). […] For example, at 24 h, the reduction of secreted VEGF-A over the corresponding controls was: OVCAR3=100%, A2780=86%, A2780cis=100%, and A2780ADR=100%. Compound 5 suppressed VEGF-B by 90-92% compared to control. The anti-VEFG effect of Compound 5 is as strong in the drug-resistant as in the drug-sensitive cell lines.

[5] = tested on: VEGF-A; assay: Secreted VEGF in culture medium by ELISA; type: cell-based, human
Method: as §2

[6] = tested on: A2780cis xenografts; assay: Subcutaneous xenografts in nude mice, cisplatin resistant; type: in vivo; details: compound 5 15 mg/kg/day six days a week ip; cis-platinum 5.5 mg/kg one time a week ip
Method: (§3) Compound 6 was also efficacious against chemotherapy-resistant ovarian cancer. […] The effect of compound 6 in cisplatin resistant (A2780cis) and doxorubicin (Adriamycin) resistant (A2780ADR) tumors was studied. Briefly, each of these cell lines was subcutaneously inoculated into athymic nude mice and when the tumor size reached 100-200 mm^3, compound 6 150 mg/kg/day or its vehicle were given i.p. After 11 days of treatment, for the cisplatin-resistant tumors the tumor volume of the vehicle group was 2388±127 mm^3 and for compound 6 group 1032±108 mm^3 (mean±SEM; P<0.02); while for the doxorubicin-resistant tumors these values were: vehicle group=1369±337 mm^3 and compound 6 group=396±182 mm^3 (P<0.02).
(§4) To determine whether compound 5 is efficacious against chemotherapy-resistant ovarian cancer, three pairs of sensitive and resistant human ovarian cancer cell lines were grown as subcutaneous xenografts in nude mice and treated as summarized in FIG. 10. These cell lines were: A2780, sensitive to both cis-platinum and Adriamycin (doxorubicin); A2780cis, resistant to cis-platinum; A2780ADR, resistant to Adriamycin: HEY, sensitive to Taxol; HEY-T30, resistant to Taxol. The treatments administered were: vehicle control; compound 5, 15 mg/kg/day six days a week, ip; cis-platinum 5.5 mg/kg, one time a week ip; Adriamycin 3 mg/kg twice a week ip; and Taxol 20 mg/kg twice a week ip.

[7] = tested on: SKOV-3 human ovarian cancer cells; assay: Transmission electron microscopy, ER stress; type: cell-based; details: 1.5×IC50
Method: as §1

[8] = tested on: SKOV-3 human ovarian cancer cell xenografts; assay: Intraperitoneal luciferase-expressing SKOV-3 tumors in nude mice; type: in vivo; details: 15 mg/kg ip once a day, six days a week
Method: The ability of compound 5 to inhibit the growth of human ovarian cancer cell xenografts in nude mice was determined. A mouse model that recapitulates the features of peritoneal spread was used, the peritoneal spread being the clinically most relevant presentation of ovarian cancer. In this model, luciferase-expressing ovarian cancer cells are injected intraperitoneally (ip) into nude mice. Multiple tumors grow in the peritoneal cavity and their growth is monitored periodically using the IVIS Lumina II imaging system following the intraperitoneal administration of luciferin, the substrate of luciferase. The luciferase gene was transfected into SKOV-3 cells, and 2×10^6 cells were intraperitoneally injected into mice. Two weeks later, when tumors had grown, mice treatment was started by intraperitoneally injecting compound 5, 15 mg/kg or vehicle (corn oil), once a day, six days a week (n=10 mice/group).
When the tumor volume of the compound 5 treated mice at the end of the study is compared to that of the day when treatment started (baseline), compound 5 caused 53% tumor regression, with 3 out of 10 mice having barely detectable tumors by imaging and no tumors visible at necropsy.
as §3

[9] = tested on: A2780 xenografts; assay: Subcutaneous xenografts in nude mice, platinum sensitive; type: in vivo; details: compound 5 15 mg/kg/day six days a week ip; cis-platinum 5.5 mg/kg one time a week ip
Method: as §4

[10] = tested on: eIF2α; assay: Phosphorylation in SKOV-3 cells (integrated stress response); type: cell-based, human
From the text: FIG. 13A: Compound 5 induces the phosphorylation of eIF2α, confirming integrated stress response. p-eIF2αinduces ATF4 that suppresses 5′-cap dependent translation initiation, shown below. […] The levels of reporter proteins used in the translation assay (Pierce™ Renilla-Firefly Luciferase Dual Assay Kit; Thermo Scientific, Grand Island, NY) were normalized to the levels of intracellular FLUC-RLUC transcripts and are shown as percent of untreated control cells. RLU=Relative light units. 5′-cap dependent translation initiation was much less and occurred later. Values: Mean±SEM; *, p<0.05 and **, p<0.01 vs. control. […] Loading controls: β-actin and GADPH.

IC50 [3]: 9 µM
SMILES: CCN(CC)CCCCNC(=O)c1ccccc1SC/C=C(\C)CC/C=C(\C)CCC=C(C)C [Compound 5]
percentage of cells with acridine orange staining [1]: 38% | new vessels after treatment ([2]; control 58±4.9 (compound 5), 42.6±8.2 (compound 6)): 46±2.1 | reduction of formation of new vessels ([2]; in vivo): 21% | suppression of VEGF-B compared to control [4]: 90-92% | reduction of secreted VEGF-A over controls ([5]; A2780, 24 h): 86% | reduction of secreted VEGF-A over controls ([5]; A2780ADR, 24 h): 100% | reduction of secreted VEGF-A over controls ([5]; A2780cis, 24 h): 100% | reduction of secreted VEGF-A over controls ([5]; OVCAR3, 24 h): 100% | suppression of secreted VEGF-A levels ([5]; SKOV-3, 1×IC50, 6 hr): 80% | suppression of secreted VEGF-A levels ([5]; SKOV-3, 1×IC50, 24 hr): 100% | growth of platinum-resistant xenografts [6]: as efficacious as in the platinum sensitive xenografts | endoplasmic reticulum (ER) stress [7]: induction of endoplasmic reticulum (ER) stress | reduction of tumor volume compared to control ([8]; day 24): 153% | mice having barely detectable tumors by imaging and no tumors visible at necropsy ([8]; end of study): 3 out of 10 | tumor regression vs baseline (day treatment started) ([8]; end of study): 53% | growth of platinum-sensitive xenografts [9]: suppressed the growth | phosphorylation of eIF2α [10]: induces
